Measurements as given in patent US20110015246A2, “LOFEXIDINE ENANTIOMERS FOR USE AS A TREATMENT FOR CNS DISEASE AND PATHOLOGIES AND ITS CHIRAL SYNTHESIS” (Agean LLC, priority 2006, published 2011).

Tests used:
[1] = chills, vomiting, sweating, stomach cramps, diarrhea, muscle pain, runny nose and eyes; cited from earlier work
[2] = test system: α2-adrenergic binding sites in rat brain membranes; test: binding to α2-adrenergic binding sites in rat brain membranes
[3] = effect on blood pressure and bradycardiac activity (peripheral side effects); type: in vivo
[4] = test system: α1-adrenergic receptors in rat brain membranes; test: binding to α1-adrenergic receptors in rat brain membranes
pithed normotensive rats = test: pressor effects after intravenous administration in pithed normotensive rats; type: in vivo, rat
[5] = test system: pentobarbitone anesthetized normotensive rats; test: mean arterial pressure and heart rate after intravenous administration in pentobarbitone anesthetized normotensive rats; type: in vivo, rat
pithed rat = test: electrical stimulation-evoked heart rate and diastolic pressure increase in the pithed rat; type: in vivo
[6] = test system: brain adrenergic receptors; test: potency at brain adrenergic receptors involved in opioid detoxification; type: binding

Question: For `CC(Oc1c(Cl)cccc1Cl)C1=NCCN1` (racemic) [Lofexidine, 2-[1-(2,6-dichlorophenoxy)ethyl]-4,5-dihydro-1H-Imidazole], which “reducing the symptoms associated with heroin withdrawal” value [1] is on record?
Answer: Its value is “effective”.

Question: Which results are given for `CC(Oc1c(Cl)cccc1Cl)C1=NCCN1` (single isomer, unassigned; (+)) [(+)-lofexidine, 2-[1-(2,6-dichlorophenoxy)ethyl]-4,5-dihydro-1H-Imidazole]?
Answer: potency at α2-adrenergic receptors, times less potent than (−)-lofexidine ([2]; (+) vs (−)): nine; peripheral side effects on blood pressure ([3]; compared to (±)-lofexidine): considerably lower; bradycardiac activity ([3]; in vivo): practically no effect; effect on reducing blood pressure ([3]; in vivo): practically no effect; potency at α1-adrenergic receptors, times less potent than (−)-lofexidine ([4]; rat brain membranes, (+) vs (−)): four

Question: For `CC(Oc1c(Cl)cccc1Cl)C1=NCCN1` (single isomer, unassigned; (-)) [(−)-lofexidine, 2-[1-(2,6-dichlorophenoxy)ethyl]-4,5-dihydro-1H-Imidazole], which “affinity for α2-adrenergic binding sites relative to the (+)-enantiomer (times higher)” value ([2]; (−) vs (+)) is on record?
Answer: Its value is “about nine”.

Question: What about the “doses eliciting pressor effects, times lower than (+)-lofexidine” value (pithed normotensive rats) of the same compound?
Answer: The value was 20 times.

Question: What about the “effectiveness in decreasing heart rate relative to (+)-lofexidine” value [5] of the same compound?
Answer: Its value is “twenty”.

Question: And the “effectiveness in decreasing mean arterial pressure relative to (+)-lofexidine” value [5]?
Answer: The value was “twenty”.

Question: And the “potency in decreasing the increased heart rate evoked by electrical stimulation relative to (+)-lofexidine” value (pithed rat)?
Answer: The value was “thirty”.

Question: And the “impairment of electrical stimulation-induced increase in diastolic pressure” value (pithed rat; compared with (+)-lofexidine)?
Answer: The value was “more effectively unpaired”.

Question: And the “potency at brain adrenergic receptors compared with (+)-lofexidine” value [6]?
Answer: The value was “more potent”.

Question: And the “affinity for α1-adrenergic receptors relative to the (+)-enantiomer (times greater)” value ([4]; (−) vs (+))?
Answer: The value was “about four”.
